Assay results from patent publication US20210317134A1, “UBIQUITIN-SPECIFIC-PROCESSING PROTEASE 7 (USP7) MODULATORS AND USES THEREOF” (RAPT THERAPEUTICS, INC., priority 2019, published 2021).
pIC50: −log10 of the molar value.

Target: USP7 (Homo sapiens, UniProt Q93009)
Experiment: USP7 inhibitory potency (Table 1)
Assay type: biochemical

USP7, sequence (Q93009 whole entry): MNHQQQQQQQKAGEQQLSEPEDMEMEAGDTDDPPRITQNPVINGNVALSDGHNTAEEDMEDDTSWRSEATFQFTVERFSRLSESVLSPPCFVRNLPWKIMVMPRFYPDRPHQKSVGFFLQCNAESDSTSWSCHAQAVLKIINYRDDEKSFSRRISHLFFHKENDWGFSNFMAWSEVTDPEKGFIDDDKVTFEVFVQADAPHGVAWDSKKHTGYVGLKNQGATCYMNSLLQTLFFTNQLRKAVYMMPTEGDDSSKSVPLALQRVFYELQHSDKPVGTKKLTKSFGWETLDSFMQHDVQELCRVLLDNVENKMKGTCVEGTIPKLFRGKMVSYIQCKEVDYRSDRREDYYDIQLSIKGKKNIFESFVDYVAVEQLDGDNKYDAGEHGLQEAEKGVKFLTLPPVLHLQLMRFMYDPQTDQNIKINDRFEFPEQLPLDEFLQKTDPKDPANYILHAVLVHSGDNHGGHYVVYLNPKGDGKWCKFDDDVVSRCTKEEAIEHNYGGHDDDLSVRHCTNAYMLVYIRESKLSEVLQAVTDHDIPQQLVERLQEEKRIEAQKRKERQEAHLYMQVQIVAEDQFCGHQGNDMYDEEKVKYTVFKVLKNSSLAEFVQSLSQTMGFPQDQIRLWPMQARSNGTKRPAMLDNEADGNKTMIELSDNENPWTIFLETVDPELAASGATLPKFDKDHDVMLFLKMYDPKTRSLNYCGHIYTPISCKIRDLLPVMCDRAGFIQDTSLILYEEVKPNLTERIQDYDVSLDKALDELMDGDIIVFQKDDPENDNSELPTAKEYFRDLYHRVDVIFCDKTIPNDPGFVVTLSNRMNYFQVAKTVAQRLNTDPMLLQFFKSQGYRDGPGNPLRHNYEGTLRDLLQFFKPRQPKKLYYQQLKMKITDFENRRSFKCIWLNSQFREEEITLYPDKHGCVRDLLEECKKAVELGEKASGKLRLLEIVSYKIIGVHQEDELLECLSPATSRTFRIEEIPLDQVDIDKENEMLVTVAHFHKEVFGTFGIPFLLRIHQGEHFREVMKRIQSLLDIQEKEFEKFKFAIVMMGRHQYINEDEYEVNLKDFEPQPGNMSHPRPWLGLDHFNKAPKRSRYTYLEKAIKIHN

pIC50 | SMILES
> 6.00 | CS(=O)(=O)NCCc1cc2nccc(-c3cc(Cl)cc4c3O[C@@H](C(=O)N3CCNCC3)C4)c2s1 [(R)-N-(2-(7-(5-chloro-2-(piperazine-1-carbonyl)-2,3-dihydrobenzofuran-7-yl)thieno[3,2-b]pyridin-2-yl)ethyl)methanesulfonamide]
> 6.00 | CC(=O)NC(C)c1cc2nccc(-c3cc(Cl)cc4c3O[C@@H](c3c5c(nn3C)CCNC5)C4)c2s1 (stereo partly drawn) [N-(1-(7-((R)-5-chloro-2-(2-methyl-4,5,6,7-tetrahydro-2H-pyrazolo[4,3-c]pyridin-3-yl)-2,3-dihydrobenzofuran-7-yl)thieno[3,2-b]pyridin-2-yl)ethyl)acetamide]
> 6.00 | CC[C@@H](O)c1cc2nccc(-c3cc(Cl)cc4c3O[C@@H](c3onc5c3CNCC5)C4)c2s1 [(R)-1-(7-((R)-5-chloro-2-(4,5,6,7-tetrahydroisoxazolo[4,3-c]pyridin-3-yl)-2,3-dihydrobenzofuran-7-yl)thieno[3,2-b]pyridin-2-yl)propan-1-ol]
> 6.00 | O=C([C@H]1Cc2cc(Cl)cc(-c3ccnc4cc(C(O)(CO)CCl)sc34)c2O1)N1CCNCC1 (stereo partly drawn) [((2R)-5-chloro-7-(2-(1-chloro-2,3-dihydroxypropan-2-yl)thieno[3,2-b]pyridin-7-yl)-2,3-dihydrobenzofuran-2-yl)(piperazin-1-yl)methanone]
> 6.00 | OC1(c2cc3nccc(-c4cc(Cl)cc5c4O[C@@H](c4onc6c4CNCC6)C5)c3s2)COC1 [(R)-3-(7-(5-chloro-2-(4,5,6,7-tetrahydroisoxazolo[4,3-c]pyridin-3-yl)-2,3-dihydrobenzofuran-7-yl)thieno[3,2-b]pyridin-2-yl)oxetan-3-ol]
5.00 to 6.00 | NCc1cc(-c2cc(Cl)cc3c2O[C@@H](c2onc4c2CNCC4)C3)c2ccccc2n1 [(R)-(4-(5-chloro-2-(4,5,6,7-tetrahydroisoxazolo[4,3-c]pyridin-3-yl)-2,3-dihydrobenzofuran-7-yl)quinolin-2-yl)methanamine]
> 6.00 | O=C1CCC(=O)N1Cc1cc2ncnc(-c3cc(Cl)cc4c3O[C@@H](c3onc5c3CNCC5)C4)c2o1 [(R)-1-((4-(5-chloro-2-(4,5,6,7-tetrahydroisoxazolo[4,3-c]pyridin-3-yl)-2,3-dihydrobenzofuran-7-yl)furo[3,2-d]pyrimidin-6-yl)methyl)pyrrolidine-2,5-dione]
5.00 to 6.00 | CCC1(CC)Cc2nccc(-c3cc(Cl)cc4c3O[C@@H](c3onc5c3CNCC5)C4)c2C1 [(R)-3-(5-chloro-7-(6,6-diethyl-6,7-dihydro-5H-cyclopenta[b]pyridin-4-yl)-2,3-dihydrobenzofuran-2-yl)-4,5,6,7-tetrahydroisoxazolo[4,3-c]pyridine]
4.52 to 5.00 | O=C(C1Cc2cc(Cl)cc(-c3ccnc4[nH]ccc34)c2O1)N1CCN(c2ccccn2)CC1 (centres unmarked) [(5-Chloro-7-(1H-pyrrolo[2,3-b]pyridin-4-yl)-2,3-dihydrobenzofuran-2-yl)(4-(pyridin-2-yl)piperazin-1-yl)methanone]
5.00 to 6.00 | O=C(C1Cc2cc(Cl)cc(-c3ccnc4[nH]ccc34)c2O1)N1CCC2(CC1)CNC2 (centres unmarked) [(5-chloro-7-(1H-pyrrolo[2,3-b]pyridin-4-yl)-2,3-dihydrobenzofuran-2-yl)(2,7-diazaspiro[3.5]nonan-7-yl)methanone]
5.00 to 6.00 | O=C(C1Cc2cc(Cl)cc(-c3ccnc(O)c3)c2O1)N1CCNCC1 (centres unmarked) [(5-chloro-7-(2-hydroxypyridin-4-yl)-2,3-dihydrobenzofuran-2-yl)(piperazin-1-yl)methanone]
5.00 to 6.00 | O=C([C@H]1Cc2cc(Cl)cc(-c3ccnc4occc34)c2O1)N1CCNCC1 [(R)-(5-chloro-7-(furo[2,3-b]pyridin-4-yl)-2,3-dihydrobenzofuran-2-yl)(piperazin-1-yl)methanone]
5.00 to 6.00 | O=C(C1Cc2cc(Cl)cc(-c3ccnc4[nH]ccc34)c2O1)N1CCC(c2ccncc2)CC1 (centres unmarked) [(5-chloro-7-(1H-pyrrolo[2,3-b]pyridin-4-yl)-2,3-dihydrobenzofuran-2-yl)(4-(pyridin-4-yl)piperidin-1-yl)methanone]
> 6.00 | O=C([C@H]1Cc2cc(Cl)cc(-c3ccnc4cc(CN5C(=O)CCCC5=O)sc34)c2O1)N1CCNCC1 [(R)-1-((7-(5-chloro-2-(piperazine-1-carbonyl)-2,3-dihydrobenzofuran-7-yl)thieno[3,2-b]pyridin-2-yl)methyl)piperidine-2,6-dione]
> 6.00 | O=C1CCC(=O)N1Cc1cc2nccc(-c3cc(Cl)cc4c3O[C@@H](c3onc5c3CC(N3CCC3)CC5)C4)c2s1 (stereo partly drawn) [1-((7-((2R)-2-(5-(azetidin-1-yl)-4,5,6,7-tetrahydrobenzo[c]isoxazol-3-yl)-5-chloro-2,3-dihydrobenzofuran-7-yl)thieno[3,2-b]pyridin-2-yl)methyl)pyrrolidine-2,5-dione]
5.00 to 6.00 | O=C(C1Cc2cc(Cl)cc(-c3ccnc4[nH]ccc34)c2O1)N1CCC(O)(c2ccc(F)cc2Cl)CC1 (centres unmarked) [(4-(2-chloro-4-fluorophenyl)-4-hydroxypiperidin-1-yl)(5-chloro-7-(1H-pyrrolo[2,3-b]pyridin-4-yl)-2,3-dihydrobenzofuran-2-yl)methanone]
> 6.00 | CN1CCC(=O)N(Cc2cc3nccc(-c4cc(Cl)cc5c4O[C@@H](C(=O)N4CCNCC4)C5)c3s2)C1=O [(R)-3-((7-(5-chloro-2-(piperazine-1-carbonyl)-2,3-dihydrobenzofuran-7-yl)thieno[3,2-b]pyridin-2-yl)methyl)-1-methyldihydropyrimidine-2,4(1H,3H)-dione]
> 6.00 | Cn1nc2c(c1[C@H]1Cc3cc(Cl)cc(-c4ccnc5ccsc45)c3O1)CNCC2 [(R)-7-(5-chloro-2-(2-methyl-4,5,6,7-tetrahydro-2H-pyrazolo[4,3-c]pyridin-3-yl)-2,3-dihydrobenzofuran-7-yl)thieno[3,2-b]pyridine]
> 6.00 | O=C([C@H]1Cc2cc(Cl)cc(-c3ccnc4[nH]ccc34)c2O1)N1CCNCC1 [(R)-(5-chloro-7-(1H-pyrrolo[2,3-b]pyridin-4-yl)-2,3-dihydrobenzofuran-2-yl)(piperazin-1-yl)methanone]
5.00 to 6.00 | CCC(O)c1ccc2c(-c3cc(Cl)cc4c3O[C@@H](c3onc5c3CNCC5)C4)ccnc2c1 (stereo partly drawn) [1-(4-((R)-5-chloro-2-(4,5,6,7-tetrahydroisoxazolo[4,3-c]pyridin-3-yl)-2,3-dihydrobenzofuran-7-yl)quinolin-7-yl)propan-1-ol]
5.00 to 6.00 | O=C(C1Cc2cc(Cl)cc(-c3ccnc4cc[nH]c34)c2O1)N1CCNCC1 (centres unmarked) [(5-chloro-7-(1H-pyrrolo[3,2-b]pyridin-7-yl)-2,3-dihydrobenzofuran-2-yl)(piperazin-1-yl)methanone]
5.00 to 6.00 | CCC1(CO)Cc2nccc(-c3cc(Cl)cc4c3O[C@@H](C(=O)N3CCNCC3)C4)c2C1 (stereo partly drawn) [((2R)-5-chloro-7-(6-ethyl-6-(hydroxymethyl)-6,7-dihydro-5H-cyclopenta[b]pyridin-4-yl)-2,3-dihydrobenzofuran-2-yl)(piperazin-1-yl)methanone]
> 6.00 | CCC(O)c1cc2ncnc(-c3cc(Cl)cc4c3O[C@@H](c3onc5c3CNCC5)C4)c2s1 (stereo partly drawn) [drawing 1596, 1-(4-((R)-5-chloro-2-(4,5,6,7-tetrahydroisoxazolo[4,3-c]pyridin-3-yl)-2,3-dihydrobenzofuran-7-yl)thieno[3,2-d]pyrimidin-6-yl)propan-1-ol]
